Measurements as given in PubChem BioAssay AID1963865 (Molecular Pharmacology Branch, DTP, NCI, 2024).

System: KRAS PDC multicell spheroid viability
Test: Anticancer human tumor 825966-067-R-J1-PDC patient-derived colon carcinoma cell line growth inhibition [KRAS2]
Details: for IC50: curve of first compound; for viability, T/C: stronger effect = lower value
Description: Multicellular complex tumor spheroid response to RAS pathway inhibitors in combination with a targeted agents in patient-derived cell lines with oncogenic KRAS variants from multiple cancer types
A high-throughput screen of multi-cell type tumor spheroids was designed to identify active combinations of targeted small molecules and KRAS pathway inhibitors. Complex spheroids include a stromal component modeled by human endothelial cells (HUVEC) and fibroblasts modeled by human mesenchymal stem cells (MSCs). The concentration ranges selected for each drug and investigational agent were based upon clinically achievable concentrations if the clinical Cmax of the agent was known.
Compounds. The drugs and investigational agents: BI-3406 (NSC825286), BAY-293 (NSC824723), batoprotafib (TNO155; NSC825523), sotorasib (AMG 510; NSC818433), MRTX1257 (NSC819558), elimusertib (BAY 1895344; NSC800525), molibresib (GSK525762; NSC774829), temuterkib (LY3214996; NSC803410), venetoclax (NSC766270), alisertib (NSC759677), olaparib (NSC753686), talazoparib (NSC767125), erdafitinib (NSC781556), ipatasertib (NSC767898), cabozantinib (NSC761068), nintedanib (NSC756659), abemaciclib (NSC768073), docetaxel (NSC628503), trametinib (NSC758246), and sapanisertib (NSC764658) were obtained from the National Cancer Institute (NCI) Developmental Therapeutics Program Chemical Repository. The FDA-approved anticancer drug set is available from the Developmental Therapeutics Program. […] The stock solutions were prepared in dimethyl sulfoxide (DMSO, Sigma-Aldrich, St. Louis, MO, cat. D2650) at 800-fold the tested concentration and stored at -70 degrees C prior to their use. All drugs and investigational agents were tested over a range starting from a high concentration at or near the clinical Cmax and decreasing in half-log increments. If the clinical Cmax for an agent had not been determined, the highest concentration tested was 10 microM.
Cell Culture. All cells were maintained in an incubator at 37 degrees C and 5% CO2 with 95% humidity. The PDC lines were cultured according to standard operating procedures established by the NCI PDMR (https://pdmr.cancer.gov/sops/default.htm). Briefly, all PDCs were thawed and cultured in Matrigel-coated flasks prepared with a working solution of 1X Ham's F-12 nutrient mix, without supplementation (Invitrogen, Waltham, MA, cat. 11765054), 100 U/mL penicillin-streptomycin (Invitrogen, cat. 15140122), and 2.5% Matrigel (Corning Inc., Corning, NY, cat. 354248) for the first three passages. All PDCs were cultured in complete DMEM/F-12 media containing advanced DMEM/F-12 (Invitrogen, cat. 12634028), 4.9% defined fetal bovine serum, heat inactivated (HyClone Laboratories Inc., Logan, UT, cat. SH30070.03HI), 389 ng/mL hydrocortisone (Sigma-Aldrich, cat. H4001), 9.7 ng/mL human EGF recombinant protein (Invitrogen, cat. PHG0313), 23.4 microg/mL adenine (Sigma-Aldrich, cat. A2786), 97.3 U/mL penicillin-streptomycin (Invitrogen, cat. 15140122), 1.9 mM L-glutamine (Invitrogen, cat. 25030081), and 9.7 microM Y-27632 dihydrochloride (Tocris Bioscience, Bristol, United Kingdom, cat. 1254). The PDCs were cultured in complete DMEM/F12 media without 9.7 microM Y-27632 dihydrochloride for at least two passages prior to the screen. The established cell line HOP-62 was cultured in RPMI 1640 medium, HEPES (Invitrogen, cat. 22400105) with 10% defined fetal bovine serum (HyClone Laboratories Inc., cat. SH30070.03) and 2 mM L-glutamine (Invitrogen, cat. 25030081). The pooled donor HUVEC were cultured in endothelial cell growth medium 2 (PromoCell, Heidelberg, Germany, cat. C-22011) and the hMSC were cultured in mesenchymal stem cell growth medium 2 (PromoCell, cat. C-28009). For all experiments, HUVEC and hMSC were used at passages </=5, while the malignant cell lines were used at passages </=15. […]

[1] = second compound 0.1 µM, first compound 0.0316 µM
[2] = second compound 0.1 µM, first compound 0.1 µM
[3] = second compound 0.1 µM, first compound 0.316 µM
[4] = second compound 0.1 µM, first compound 1 µM
[5] = second compound 0.1 µM, first compound 3.16 µM
[6] = second compound 0.316 µM, first compound 0.0316 µM
[7] = second compound 0.316 µM, first compound 0.1 µM
[8] = second compound 0.316 µM, first compound 0.316 µM
[9] = second compound 0.316 µM, first compound 1 µM
[10] = second compound 0.316 µM, first compound 3.16 µM
[11] = second compound 1 µM, first compound 0.0316 µM
[12] = second compound 1 µM, first compound 0.1 µM
[13] = second compound 1 µM, first compound 0.316 µM
[14] = second compound 1 µM, first compound 1 µM
[15] = second compound 1 µM, first compound 3.16 µM
[16] = second compound 3.16 µM, first compound 0.0316 µM
[17] = second compound 3.16 µM, first compound 0.1 µM
[18] = second compound 3.16 µM, first compound 0.316 µM
[19] = second compound 3.16 µM, first compound 1 µM
[20] = second compound 3.16 µM, first compound 3.16 µM
[21] = second compound 10 µM, first compound 0.0316 µM
[22] = second compound 10 µM, first compound 0.1 µM
[23] = second compound 10 µM, first compound 0.316 µM
[24] = second compound 10 µM, first compound 1 µM
[25] = second compound 10 µM, first compound 3.16 µM
[26] = second compound 0.1 µM, first compound 10 µM
[27] = second compound 0.316 µM, first compound 10 µM
[28] = second compound 1 µM, first compound 10 µM
[29] = second compound 3.16 µM, first compound 10 µM
[30] = second compound 10 µM, first compound 10 µM
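Further: spheroids exposed to compounds for 7 days.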
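Wherever viability, T/C is given: 100% = DMSO vehicle control viability.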

SMILES	IC50 (second compound 0.1 µM) [µM]	IC50 (second compound 0.316 µM) [µM]	IC50 (second compound 1 µM) [µM]	IC50 (second compound 3.16 µM) [µM]	IC50 (second compound 10 µM) [µM]	viability, T/C [1] [%]	viability, T/C [2] [%]	viability, T/C [3] [%]	viability, T/C [4] [%]	viability, T/C [5] [%]	viability, T/C [6] [%]	viability, T/C [7] [%]	viability, T/C [8] [%]	viability, T/C [9] [%]	viability, T/C [10] [%]	viability, T/C [11] [%]	viability, T/C [12] [%]	viability, T/C [13] [%]	viability, T/C [14] [%]	viability, T/C [15] [%]	also measured
CC1COCCN1c1cc(-c2ccnn2C)c2ccnc(-c3ccn[nH]3)c2n1 (stereo not given) + C=CC(=O)N1CCN(c2nc(=O)n(-c3c(C)ccnc3C(C)C)c3nc(-c4c(O)cccc4F)c(F)cc23)C(C)C1	0.308	> 3.16	0.263	3.16	> 3.16	135	123	41.5	56.2	47.4	142	72.9	60.3	44.9	60.4	125	71	41.5	51.1	41.4	viability, T/C (second compound 0.1 µM, first compound 0.01 µM): 110%; viability, T/C (second compound 0.316 µM, first compound 0.01 µM): 137%; viability, T/C (second compound 1 µM, first compound 0.01 µM): 137%; viability, T/C (second compound 3.16 µM, first compound 0.01 µM): 106%; viability, T/C [16]: 146%; viability, T/C [17]: 70.4%; viability, T/C [18]: 70.8%; viability, T/C [19]: 51.2%; viability, T/C [20]: 43%; viability, T/C (second compound 10 µM, first compound 0.01 µM): 137%; viability, T/C [21]: 108%; viability, T/C [22]: 64.6%; viability, T/C [23]: 75.8%; viability, T/C [24]: 59.1%; viability, T/C [25]: 47.2%
CC1OCC2(CCN(c3cnc(Sc4ccnc(N)c4Cl)c(N)n3)CC2)C1N (stereo not given) + C=CC(=O)N1CCN(c2nc(=O)n(-c3c(C)ccnc3C(C)C)c3nc(-c4c(O)cccc4F)c(F)cc23)C(C)C1	9.58	6.95	7.78	6.05	4.49	78.4	66.8	98.4	85	94.1	82.8	96.1	79.4	78.3	94.1	82.1	69.3	74.8	75.5	76.3	viability, T/C [26]: 48.6%; viability, T/C [27]: 33.3%; viability, T/C [28]: 43.1%; viability, T/C [16]: 93.5%; viability, T/C [17]: 70.1%; viability, T/C [18]: 83.2%; viability, T/C [19]: 81%; viability, T/C [20]: 90.4%; viability, T/C [29]: 23.9%; viability, T/C [21]: 80.5%; viability, T/C [22]: 74.3%; viability, T/C [23]: 106%; viability, T/C [24]: 92.9%; viability, T/C [25]: 70.1%; viability, T/C [30]: 4.36%
CCNC(=O)CC1N=C(c2ccc(Cl)cc2)c2cc(OC)ccc2-n2c(C)nnc21 (stereo not given) + C=CC(=O)N1CCN(c2nc(=O)n(-c3c(C)ccnc3C(C)C)c3nc(-c4c(O)cccc4F)c(F)cc23)C(C)C1	> 10	> 10	> 10	> 10	1.29	81	80.9	108	111	99.5	79.6	76.6	68	104	85.6	80.9	91.5	102	83.3	83.9	viability, T/C [26]: 81.8%; viability, T/C [27]: 85.2%; viability, T/C [28]: 63.6%; viability, T/C [16]: 74.8%; viability, T/C [17]: 82.3%; viability, T/C [18]: 98.3%; viability, T/C [19]: 91.8%; viability, T/C [20]: 50.1%; viability, T/C [29]: 61.5%; viability, T/C [21]: 104%; viability, T/C [22]: 72.5%; viability, T/C [23]: 95.4%; viability, T/C [24]: 54.3%; viability, T/C [25]: 32.4%; viability, T/C [30]: 36.9%
Cn1nccc1Nc1nccc(-c2cc3c(s2)C(C)(C)N(CCN2CCOCC2)C3=O)n1 + C=CC(=O)N1CCN(c2nc(=O)n(-c3c(C)ccnc3C(C)C)c3nc(-c4c(O)cccc4F)c(F)cc23)C(C)C1	> 10	> 10	7.09	> 10	> 10	89.9	101	119	100	81.3	84.2	91.3	122	107	83.2	86.9	83.6	103	98.7	78.4	viability, T/C [26]: 85.8%; viability, T/C [27]: 72.2%; viability, T/C [28]: 38%; viability, T/C [16]: 95.3%; viability, T/C [17]: 95.7%; viability, T/C [18]: 111%; viability, T/C [19]: 82.8%; viability, T/C [20]: 77.7%; viability, T/C [29]: 67%; viability, T/C [21]: 73.4%; viability, T/C [22]: 86.5%; viability, T/C [23]: 92.1%; viability, T/C [24]: 82.5%; viability, T/C [25]: 77.8%; viability, T/C [30]: 73%
